Experimental data published in patent US4081434A, “Novel analogs of β-endorphin” (Hoffmann-La Roche Inc., priority 1977, dated 1978).
Ends that are not written are not given here.

The molecules below were run on guinea pig ileum (assay: guinea pig ileum bioassay of Kosterlitz et al. (opiate agonist activity)). Details: guinea pig ileum assay for opiate agonist activity.
Format: cell-based
Text: Thus, for example, in the guinea pig ileum bioassay of Kosterlitz et al. Brit. J. Pharmacol. 39, 398 (1970) the IC50 (50% inhibiting concentration) of representative β-endorphins and the relative potency of β-endorphin fragments are as follows.
With “YGGFMTLFKNAIIKNAYKKGE [βh-endorphin-(1-5)-(16-31), H--tyr--Gly--Gly--Phe--Met--Thr--Leu--Phe--Lys--Asn--Ala--Ile--Ile--Lys--Asn--Ala--Tyr--Lys--Lys--Gly--Glu--OH]” the “more potent than parent compound βh -endorphin” value was “about 35%”.

Same assay, conditions: guinea pig ileum bioassay; βh and βc -endorphin = 1.00
“βc -endorphin-(20-31): fragment 20-31 of camel β-endorphin (NAIIKNAHKKGQ; Beta-endorphin; UniProt P01203 20-31, looked up, fragment)” showed a relative potency of 0.001. In the case of “YGGFMTLFKNAIIKNAYKKGE [βh-endorphin-(1-5)-(16-31), H--tyr--Gly--Gly--Phe--Met--Thr--Leu--Phe--Lys--Asn--Ala--Ile--Ile--Lys--Asn--Ala--Tyr--Lys--Lys--Gly--Glu--OH]”, the relative potency is reported as 1.35. met-enkephalin was tested, and the relative potency was 0.26. For “βc -endorphin-(6-31): fragment 6-31 of camel β-endorphin (TSEKSQTPLVTLFKNAIIKNAHKKGQ; Beta-endorphin; UniProt P01203 6-31, looked up, fragment)”, the relative potency was 0.04. Work on “YGGFMTSEKSQTPLVTLFKNAIIKNAHKKGQ [βc -endorphin]” yielded a relative potency of 1.00. `CC[C@H](C)[C@H](NC(=O)[C@H](C)NC(=O)[C@H](CC(N)=O)NC(=O)[C@H](CCCCN)NC(=O)[C@H](Cc1ccccc1)NC(=O)[C@H](CC(C)C)NC(=O)[C@@H](NC(=O)[C@@H](NC(=O)[C@H](CC(C)C)NC(=O)[C@@H]1CCCN1C(=O)[C@@H](NC(=O)[C@H](CCC(N)=O)NC(=O)[C@H](CO)NC(=O)[C@H](CCCCN)NC(=O)[C@H](CCC(=O)O)NC(=O)[C@H](CO)NC(=O)[C@@H](NC(=O)[C@H](CCSC)NC(=O)[C@H](Cc1ccccc1)NC(=O)CNC(=O)CNC(=O)[C@@H](N)Cc1ccc(O)cc1)[C@@H](C)O)[C@@H](C)O)C(C)C)[C@@H](C)O)C(=O)N[C@H](C(=O)N[C@@H](CCCCN)C(=O)N[C@@H](CC(N)=O)C(=O)N[C@@H](C)C(=O)N[C@@H](Cc1ccc(O)cc1)C(=O)N[C@@H](CCCCN)C(=O)N[C@@H](CCCCN)C(=O)NCC(=O)N[C@@H](CCC(=O)O)C(=O)O)[C@@H](C)CC` [βh -endorphin] was tested, and the relative potency was 1.00.
